In patent US12673975B2, “Cyclic peptide, cell scaffold material, cell separating material, and medium” (FUJIFILM Corporation, priority 2019, dated 2026):
Like-named read-outs stand apart in the source and are kept apart here. Starred links: 1 amine or outer side, 2 acyl side, 3 side chain; linkers in the order of their positions; H or OH if unused. Positions of bridges follow the written chain, without caps; N, C: chain ends. Non-standard residues stand in square brackets, D forms with d. Residues, ends and D or L forms follow the SMILES beside them. hCys = N[C@@H](CCS)C(=O)O; Orn = NCCC[C@H](N)C(=O)O; Dab = NCC[C@H](N)C(=O)O; Dap = NC[C@H](N)C(=O)O; X2 = O=C(C[*:1])[*:2]

Key:
[1] = Evaluation of molecule stability (alkali treatment, residual rate by LC/MS); assay type: physicochemical; settings: alkali treatment, residual rate by LC/MS
How it was run: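 Stability read as percent of summed LC/MS peak area remaining versus untreated peptide (C18, 45 °C, 10 mM ammonium formate pH 3, ESI positive/negative). Treatment: 500 μM peptide in water plus an equivalent of 1 M NaOH, 15 °C for 3 hours.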

[2] = target: human integrin αvβ5 (Homo sapiens, UniProt P06756+P18084); experiment: Evaluation of integrin binding property (surface plasmon resonance, Biacore 3000, immobilized cyclic peptide)
How it was run: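 Human αvβ5 (30-1,000 nM) flowed for 10 min at 25 °C over immobilized cyclic peptide in 20 mM HEPES, 150 mM NaCl, 5 mM MgCl2, pH 7.4, followed by 30 min running buffer and 0.5 M EDTA regeneration. Dissociation constant from peptide minus unimmobilized channel, scored into standard grades.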

[3] = surface plasmon resonance, immobilized cyclic peptide, human integrin αvβ5, read-out: Binding activity (integrin binding property, dissociation constant rank)

Chain of human integrin αvβ5 (P06756 31-1048): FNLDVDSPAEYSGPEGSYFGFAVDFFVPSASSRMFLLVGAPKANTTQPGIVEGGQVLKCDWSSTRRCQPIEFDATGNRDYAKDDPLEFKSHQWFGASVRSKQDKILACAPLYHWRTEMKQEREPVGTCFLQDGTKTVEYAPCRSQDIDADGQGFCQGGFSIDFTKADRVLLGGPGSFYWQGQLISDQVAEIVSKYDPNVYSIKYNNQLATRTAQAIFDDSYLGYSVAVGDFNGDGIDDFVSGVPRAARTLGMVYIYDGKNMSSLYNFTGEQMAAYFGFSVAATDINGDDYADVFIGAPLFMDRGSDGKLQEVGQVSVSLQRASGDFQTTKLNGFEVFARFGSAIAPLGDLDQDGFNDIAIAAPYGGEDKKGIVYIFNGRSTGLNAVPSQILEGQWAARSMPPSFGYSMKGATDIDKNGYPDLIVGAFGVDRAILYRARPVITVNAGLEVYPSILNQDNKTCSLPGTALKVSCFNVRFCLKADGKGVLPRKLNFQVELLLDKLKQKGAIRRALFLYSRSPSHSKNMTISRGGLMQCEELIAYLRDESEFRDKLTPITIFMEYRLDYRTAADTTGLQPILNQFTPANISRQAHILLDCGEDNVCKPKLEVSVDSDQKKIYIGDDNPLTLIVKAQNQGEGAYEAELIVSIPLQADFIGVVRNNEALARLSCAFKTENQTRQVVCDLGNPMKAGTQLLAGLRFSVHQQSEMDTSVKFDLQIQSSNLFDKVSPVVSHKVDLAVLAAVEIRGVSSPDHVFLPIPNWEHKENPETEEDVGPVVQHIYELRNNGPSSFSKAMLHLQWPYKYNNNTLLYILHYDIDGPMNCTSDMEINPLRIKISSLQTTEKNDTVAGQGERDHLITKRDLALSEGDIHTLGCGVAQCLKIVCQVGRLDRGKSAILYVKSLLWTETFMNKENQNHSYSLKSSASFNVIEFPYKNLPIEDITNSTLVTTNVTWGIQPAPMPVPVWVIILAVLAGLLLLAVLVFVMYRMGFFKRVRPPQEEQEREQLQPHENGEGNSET
Chain of human integrin αvβ5 (P18084 24-799): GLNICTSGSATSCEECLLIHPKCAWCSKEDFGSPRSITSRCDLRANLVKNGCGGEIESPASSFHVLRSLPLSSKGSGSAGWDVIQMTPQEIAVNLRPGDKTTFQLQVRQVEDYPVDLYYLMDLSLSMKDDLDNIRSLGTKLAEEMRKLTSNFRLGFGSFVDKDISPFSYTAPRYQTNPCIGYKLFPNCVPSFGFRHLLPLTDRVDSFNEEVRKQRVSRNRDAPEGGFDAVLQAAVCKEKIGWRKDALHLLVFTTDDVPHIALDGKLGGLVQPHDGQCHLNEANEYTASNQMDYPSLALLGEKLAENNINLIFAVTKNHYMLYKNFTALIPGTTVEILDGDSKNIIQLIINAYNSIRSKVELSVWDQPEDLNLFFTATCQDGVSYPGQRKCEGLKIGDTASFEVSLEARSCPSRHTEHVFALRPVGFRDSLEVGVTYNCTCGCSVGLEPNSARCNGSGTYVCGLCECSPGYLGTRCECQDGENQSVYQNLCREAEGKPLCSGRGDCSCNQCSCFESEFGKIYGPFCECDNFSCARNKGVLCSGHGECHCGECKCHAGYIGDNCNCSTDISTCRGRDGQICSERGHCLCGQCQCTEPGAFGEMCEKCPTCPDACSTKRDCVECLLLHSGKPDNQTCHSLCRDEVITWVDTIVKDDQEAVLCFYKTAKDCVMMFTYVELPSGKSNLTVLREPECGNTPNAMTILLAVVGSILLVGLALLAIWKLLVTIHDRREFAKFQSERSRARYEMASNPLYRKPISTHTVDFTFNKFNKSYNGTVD

SMILES	Stability (molecule stability, residual rate of the cyclic peptide rank) [1]	Kd [2, 3]	Kd [2]
CC(C)[C@@H]1NC(=O)[C@@H](NC(=O)[C@H](CCCCN)NC(=O)[C@H](CCCCN)NC(=O)[C@@H](N)CCCCN)CCSCC(=O)NCC[C@@H](C(=O)O)NC(=O)[C@H](C)NC(=O)[C@H](Cc2ccccc2)NC(=O)[C@H]([C@@H](C)O)NC(=O)[C@H](CC(=O)O)NC(=O)CNC(=O)[C@H](CCCNC(=N)N)NC(=O)[C@@H]2CCCN2C1=O [Cyclic peptide 104, KKK-(Hcy)-VPRGDTFA(Dab(acetyl))] (H-KKK[hCys]VPRGDTFA[Dab]-OH; linker 4-13 via X2)	A (The residual rate of the cyclic peptide is 70% or more.)	< 50 nM	–
CC(C)[C@@H]1NC(=O)[C@@H](NC(=O)CNC(=O)[C@H](CCCCN)NC(=O)[C@H](CCCCN)NC(=O)[C@@H](N)CCCCN)CCSCC(=O)NCC[C@@H](C(=O)NCC(=O)O)NC(=O)[C@H](C)NC(=O)[C@H](Cc2ccccc2)NC(=O)[C@H]([C@@H](C)O)NC(=O)[C@H](CC(=O)O)NC(=O)CNC(=O)[C@H](CCCNC(=N)N)NC(=O)[C@@H]2CCCN2C1=O [Cyclic peptide 105, KKKG-(Hcy)-VPRGDTFA(Dab(acetyl))G] (H-KKKG[hCys]VPRGDTFA[Dab]G-OH; linker 5-14 via X2)	A (The residual rate of the cyclic peptide is 70% or more.)	–	< 50 nM
CC(C)[C@@H]1NC(=O)[C@@H](NC(=O)CNC(=O)[C@H](CCCCN)NC(=O)[C@H](CCCCN)NC(=O)[C@@H](N)CCCCN)CCSCC(=O)NCC[C@@H](C(=O)N[C@@H](C)C(=O)O)NC(=O)[C@H](C)NC(=O)[C@H](Cc2ccccc2)NC(=O)[C@H]([C@@H](C)O)NC(=O)[C@H](CC(=O)O)NC(=O)CNC(=O)[C@H](CCCNC(=N)N)NC(=O)[C@@H]2CCCN2C1=O [Cyclic peptide 106, KKKG-(Hcy)-VPRGDTFA(Dab(acetyl))A] (H-KKKG[hCys]VPRGDTFA[Dab]A-OH; linker 5-14 via X2)	A (The residual rate of the cyclic peptide is 70% or more.)	< 50 nM	–
CC(C)[C@@H]1NC(=O)[C@@H](NC(=O)[C@H](C)NC(=O)[C@H](CCCCN)NC(=O)[C@H](CCCCN)NC(=O)[C@@H](N)CCCCN)CCSCC(=O)NCC[C@@H](C(=O)NCC(=O)O)NC(=O)[C@H](C)NC(=O)[C@H](Cc2ccccc2)NC(=O)[C@H]([C@@H](C)O)NC(=O)[C@H](CC(=O)O)NC(=O)CNC(=O)[C@H](CCCNC(=N)N)NC(=O)[C@@H]2CCCN2C1=O [Cyclic peptide 107, KKKA-(Hcy)-VPRGDTFA(Dab(acetyl))G] (H-KKKA[hCys]VPRGDTFA[Dab]G-OH; linker 5-14 via X2)	A (The residual rate of the cyclic peptide is 70% or more.)	< 50 nM	–
CC(C)[C@@H]1NC(=O)[C@@H](NC(=O)[C@H](C)NC(=O)[C@H](CCCCN)NC(=O)[C@H](CCCCN)NC(=O)[C@@H](N)CCCCN)CCSCC(=O)NCC[C@@H](C(=O)N[C@@H](C)C(=O)O)NC(=O)[C@H](C)NC(=O)[C@H](Cc2ccccc2)NC(=O)[C@H]([C@@H](C)O)NC(=O)[C@H](CC(=O)O)NC(=O)CNC(=O)[C@H](CCCNC(=N)N)NC(=O)[C@@H]2CCCN2C1=O [Cyclic peptide 108, KKKA-(Hcy)-VPRGDTFA(Dab(acetyl))A] (H-KKKA[hCys]VPRGDTFA[Dab]A-OH; linker 5-14 via X2)	A (The residual rate of the cyclic peptide is 70% or more.)	< 50 nM	–
CC(C)[C@@H]1NC(=O)[C@@H](NC(=O)[C@H](C)N)CCSCC(=O)NCC[C@@H](C(=O)N[C@@H](C)C(=O)N[C@@H](CCCCN)C(=O)N[C@@H](CCCCN)C(=O)N[C@@H](CCCCN)C(=O)O)NC(=O)[C@H](C)NC(=O)[C@H](Cc2ccccc2)NC(=O)[C@H]([C@@H](C)O)NC(=O)[C@H](CC(=O)O)NC(=O)CNC(=O)[C@H](CCCNC(=N)N)NC(=O)[C@@H]2CCCN2C1=O [Cyclic peptide 109, A-(Hcy)-VPRGDTFA(Dab(acetyl))AKKK] (H-A[hCys]VPRGDTFA[Dab]AKKK-OH; linker 2-11 via X2)	A (The residual rate of the cyclic peptide is 70% or more.)	< 50 nM	–
CC(C)[C@@H]1NC(=O)[C@@H](NC(=O)[C@H](C)NC(=O)[C@H](CCCCN)NC(=O)[C@H](CCCCN)NC(=O)[C@H](CCCCN)NC(=O)[C@@H](N)CCCCN)CCSCC(=O)NCC[C@@H](C(=O)N[C@@H](C)C(=O)O)NC(=O)[C@H](C)NC(=O)[C@H](Cc2ccccc2)NC(=O)[C@H]([C@@H](C)O)NC(=O)[C@H](CC(=O)O)NC(=O)CNC(=O)[C@H](CCCNC(=N)N)NC(=O)[C@@H]2CCCN2C1=O [Cyclic peptide 110, KKKKA-(Hcy)-VPRGDTFA(Dab(acetyl))A] (H-KKKKA[hCys]VPRGDTFA[Dab]A-OH; linker 6-15 via X2)	A (The residual rate of the cyclic peptide is 70% or more.)	< 50 nM	–
CC(C)[C@@H]1NC(=O)[C@@H](NC(=O)[C@H](C)NC(=O)[C@H](CCCCN)NC(=O)[C@H](CCCCN)NC(=O)[C@H](CCCCN)NC(=O)[C@H](CCCCN)NC(=O)[C@@H](N)CCCCN)CCSCC(=O)NCC[C@@H](C(=O)N[C@@H](C)C(=O)O)NC(=O)[C@H](C)NC(=O)[C@H](Cc2ccccc2)NC(=O)[C@H]([C@@H](C)O)NC(=O)[C@H](CC(=O)O)NC(=O)CNC(=O)[C@H](CCCNC(=N)N)NC(=O)[C@@H]2CCCN2C1=O [Cyclic peptide 111, KKKKKA-(Hcy)-VPRGDTFA(Dab(acetyl))A] (H-KKKKKA[hCys]VPRGDTFA[Dab]A-OH; linker 7-16 via X2)	A (The residual rate of the cyclic peptide is 70% or more.)	< 50 nM	–
CC(C)[C@@H]1NC(=O)[C@@H](NC(=O)[C@H](C)NC(=O)[C@H](CCCCN)NC(=O)[C@H](CCCCN)NC(=O)[C@H](CCCCN)NC(=O)[C@H](CCCCN)NC(=O)[C@H](CCCCN)NC(=O)[C@@H](N)CCCCN)CCSCC(=O)NCC[C@@H](C(=O)N[C@@H](C)C(=O)O)NC(=O)[C@H](C)NC(=O)[C@H](Cc2ccccc2)NC(=O)[C@H]([C@@H](C)O)NC(=O)[C@H](CC(=O)O)NC(=O)CNC(=O)[C@H](CCCNC(=N)N)NC(=O)[C@@H]2CCCN2C1=O [Cyclic peptide 112, KKKKKKA-(Hcy)-VPRGDTFA(Dab(acetyl))A] (H-KKKKKKA[hCys]VPRGDTFA[Dab]A-OH; linker 8-17 via X2)	A (The residual rate of the cyclic peptide is 70% or more.)	< 50 nM	–
CC(C)[C@@H]1NC(=O)[C@H](CC(=O)O)NC(=O)CNC(=O)[C@H](CCCNC(=N)N)NC(=O)[C@H]([C@@H](C)O)NC(=O)[C@H](C(C)C)NC(=O)[C@@H](NC(=O)[C@H](C)NC(=O)[C@H](CCCCN)NC(=O)[C@H](CCCCN)NC(=O)[C@@H](N)CCCCN)CCSCC(=O)NCC[C@@H](C(=O)N[C@@H](C)C(=O)O)NC(=O)[C@H]([C@@H](C)O)NC(=O)[C@H](Cc2ccccc2)NC1=O [Cyclic peptide 113, KKKA-(Hcy)-VTRGDVFT(Dab(acetyl))A] (H-KKKA[hCys]VTRGDVFT[Dab]A-OH; linker 5-14 via X2)	A (The residual rate of the cyclic peptide is 70% or more.)	50 to 100 nM	–
CC[C@H](C)[C@@H]1NC(=O)[C@@H](NC(=O)CNC(=O)[C@H](CCCCN)NC(=O)[C@H](CCCCN)NC(=O)[C@@H](N)CCCCN)CCSCC(=O)NC[C@@H](C(=O)N[C@@H](C)C(=O)O)NC(=O)[C@H](CCCNC(=N)N)NC(=O)[C@H](Cc2ccccc2)NC(=O)[C@H]([C@@H](C)O)NC(=O)[C@H](CC(=O)O)NC(=O)CNC(=O)[C@H](CCCNC(=N)N)NC(=O)[C@@H]2CCCN2C1=O [Cyclic peptide 114, KKKG-(Hcy)-IPRGDTFR(Dap(acetyl))A] (H-KKKG[hCys]IPRGDTFR[Dap]A-OH; linker 5-14 via X2)	B (The residual rate of the cyclic peptide is 50% or more and less than 70%.)	< 50 nM	–
CC[C@H](C)[C@@H]1NC(=O)[C@@H](NC(=O)CNC(=O)[C@H](CCCCN)NC(=O)[C@H](CCCCN)NC(=O)[C@@H](N)CCCCN)CCSCC(=O)NCCC[C@@H](C(=O)N[C@@H](C)C(=O)O)NC(=O)[C@H](CCCNC(=N)N)NC(=O)[C@H](Cc2ccccc2)NC(=O)[C@H]([C@@H](C)O)NC(=O)[C@H](CC(=O)O)NC(=O)CNC(=O)[C@H](CCCNC(=N)N)NC(=O)[C@@H]2CCCN2C1=O [Cyclic peptide 115, KKKG-(Hcy)-IPRGDTFR(Orn(acetyl))A] (H-KKKG[hCys]IPRGDTFR[Orn]A-OH; linker 5-14 via X2)	A (The residual rate of the cyclic peptide is 70% or more.)	< 50 nM	–
CC[C@H](C)[C@@H]1NC(=O)[C@@H](NC(=O)CNC(=O)[C@H](CCCCN)NC(=O)[C@H](CCCCN)NC(=O)[C@@H](N)CCCCN)CCSCC(=O)NCCCC[C@@H](C(=O)N[C@@H](C)C(=O)O)NC(=O)[C@H](CCCNC(=N)N)NC(=O)[C@H](Cc2ccccc2)NC(=O)[C@H]([C@@H](C)O)NC(=O)[C@H](CC(=O)O)NC(=O)CNC(=O)[C@H](CCCNC(=N)N)NC(=O)[C@@H]2CCCN2C1=O [Cyclic peptide 116, KKKG-(Hcy)-IPRGDTFR(Lys(acetyl))A] (H-KKKG[hCys]IPRGDTFRKA-OH; linker 5-14 via X2)	A (The residual rate of the cyclic peptide is 70% or more.)	< 50 nM	–
